This assay concerns the target T1, P-glycoprotein (Homo sapiens, UniProt P08183).
T1 construct: gene ABCB1
In words: Rhodamine-123 accumulation kinetics (Lineweaver-Burk) and bidirectional transport in MDCK-hMDR1 cells. It is filed as cell-based.

What is called Ki is the dissociation constant of the complex between target and ligand, obtained from inhibition or displacement. A low value points to higher affinity.

T1 sequence (P08183 whole entry): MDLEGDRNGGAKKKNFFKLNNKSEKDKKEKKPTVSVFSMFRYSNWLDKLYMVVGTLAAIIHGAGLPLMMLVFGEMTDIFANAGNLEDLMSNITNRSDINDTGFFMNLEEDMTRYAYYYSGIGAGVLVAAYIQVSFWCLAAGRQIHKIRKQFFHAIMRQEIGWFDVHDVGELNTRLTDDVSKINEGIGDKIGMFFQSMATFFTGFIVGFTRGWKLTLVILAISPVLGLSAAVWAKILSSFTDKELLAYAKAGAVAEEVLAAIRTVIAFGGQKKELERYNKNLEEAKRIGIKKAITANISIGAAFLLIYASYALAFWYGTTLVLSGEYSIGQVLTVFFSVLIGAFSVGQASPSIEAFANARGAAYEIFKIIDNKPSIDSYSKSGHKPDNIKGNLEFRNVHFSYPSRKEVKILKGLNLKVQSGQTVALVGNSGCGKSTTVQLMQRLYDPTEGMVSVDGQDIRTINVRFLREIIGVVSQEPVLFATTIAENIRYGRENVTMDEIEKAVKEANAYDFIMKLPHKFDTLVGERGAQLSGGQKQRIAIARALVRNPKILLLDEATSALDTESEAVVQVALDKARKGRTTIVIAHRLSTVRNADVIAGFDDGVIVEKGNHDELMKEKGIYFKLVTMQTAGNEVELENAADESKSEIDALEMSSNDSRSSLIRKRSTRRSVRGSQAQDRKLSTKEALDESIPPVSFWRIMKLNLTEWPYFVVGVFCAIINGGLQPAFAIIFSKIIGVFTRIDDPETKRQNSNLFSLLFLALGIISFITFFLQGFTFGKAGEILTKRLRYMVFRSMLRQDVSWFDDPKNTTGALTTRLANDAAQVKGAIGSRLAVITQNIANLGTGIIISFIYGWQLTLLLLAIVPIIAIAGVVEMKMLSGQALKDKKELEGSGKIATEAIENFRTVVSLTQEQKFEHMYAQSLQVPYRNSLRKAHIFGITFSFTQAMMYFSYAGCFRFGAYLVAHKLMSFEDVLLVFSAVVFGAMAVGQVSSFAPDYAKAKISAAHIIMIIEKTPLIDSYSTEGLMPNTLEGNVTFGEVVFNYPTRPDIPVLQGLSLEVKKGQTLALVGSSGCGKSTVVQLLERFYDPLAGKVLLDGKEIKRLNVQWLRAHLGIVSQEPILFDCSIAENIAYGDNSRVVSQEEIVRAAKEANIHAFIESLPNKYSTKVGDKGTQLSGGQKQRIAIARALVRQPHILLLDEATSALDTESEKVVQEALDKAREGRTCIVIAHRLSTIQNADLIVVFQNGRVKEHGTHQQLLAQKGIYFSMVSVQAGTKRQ

In turn, `O=C1c2c(O)cc(O)cc2O[C@H](c2ccc(O)cc2)[C@@H]1[C@@H]1C(=O)c2c(O)cc(O)cc2O[C@H]1c1ccc(O)cc1` [NCB, Neochamaejasmin B] registered a Ki of 45.2 µM.

Source of the values: publication PMC6272504, “Inhibitory Effects of Neochamaejasmin B on P-Glycoprotein in MDCK-hMDR1 Cells and Molecular Docking of NCB Binding in P-Glycoprotein” (Molecules, 2015).
